Measurements taken from patent US10683293B2, “Optionally fused heterocyclyl-substituted derivatives of pyrimidine useful for the treatment of inflammatory, metabolic, oncologic and autoimmune diseases” (NUEVOLUTION A/S, priority 2014, dated 2020).

Key:
[1] = target: T1, ligand binding domain of human RORγ (Homo sapiens, UniProt P51449); test: RORγ Reporter Assay (Gal4); assay type: cell-based; details: for inhibition at 1 µM: HEK-293T, read-out: Gal4 activity range @ 1 μM (% inhibition); for Gal4 activity range @ 0.1 μM (% inhibition): RORγ Reporter Assay (Gal4), HEK293t reporter cells, compound at 0.1 μM, values are activity range bounds
T1 construct: host or cells: HEK293t
T1 sequence (P51449 269-508 limits assumed): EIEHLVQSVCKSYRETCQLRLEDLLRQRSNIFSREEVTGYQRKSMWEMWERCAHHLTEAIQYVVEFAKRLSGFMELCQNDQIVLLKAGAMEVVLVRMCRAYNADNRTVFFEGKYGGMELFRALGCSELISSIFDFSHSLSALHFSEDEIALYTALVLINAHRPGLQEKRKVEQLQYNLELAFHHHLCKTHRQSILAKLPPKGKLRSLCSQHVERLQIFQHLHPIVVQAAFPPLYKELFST
Procedure, shortened: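 HEK293t cells expressing Gal4 DBD–human RORγ LBD hybrid with Gal4-UAS firefly luciferase reporter; compounds at final 1,000 nM and 100 nM (0.1% DMSO), triplicate, medium with 10% charcoal-stripped FBS, 24 h at 37 °C. Luminescence read; percent reduction of RORγ activity calculated versus vehicle-only wells.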

[2] = target: T2, human RORγt (Ligand Binding Domain) (Homo sapiens, UniProt P51449); test: Fluorescence Polarization (FP) Assay; details: 100 nM human RORγt LBD, 25 nM TAMRA probe, values are activity range bounds
T2 construct: purchased Crelux (Planegg, Germany) batch no PC5032-1
T2 sequence (P51449 269-508 limits assumed): T1 sequence (P51449 269-508 limits assumed)
Procedure, shortened: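 Binding to the RORγt ligand-binding domain was followed by FP. Displacement of a TAMRA-tagged RORγt ligand tracer (910 g/mol) was measured, with DMSO-only wells as negative control.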

[3] = 1 μM test compound, HEK293t RORγ reporter cells, 24 hour

**Q.** What does the source list for N#Cc1ccc(CN(c2ncnc(NCc3ccc(CC(N)=O)cc3)c2F)C2CC2)cc1 [Example A64, 2-[4-[[[6-[(4-cyanophenyl)methyl-cyclopropyl-amino]-5-fluoro-pyrimidin-4-yl]amino]methyl]phenyl]acetamide]?
**A.** inhibition at 1 µM [1, 3]: > 80%; Gal4 activity range @ 0.1 μM (% inhibition) [1]: >50 % inhibition; IC50 [2]: < 500 nM

**Q.** For NC(=O)Cc1ccc(CNc2ncnc(N(Cc3c(F)cccc3Cl)C3CC3)c2F)cc1 [Example A65, 2-[4-[[[6-[(2-chloro-6-fluoro-phenyl)methyl-cyclopropyl-amino]-5-fluoro-pyrimidin-4-yl]amino]methyl]phenyl]acetamide], which inhibition at 1 µM [1, 3] is on record?
**A.** Its inhibition at 1 µM is > 50%.

**Q.** What about the “Gal4 activity range @ 0.1 μM (% inhibition)” value [1] of the same molecule?
**A.** Its value is >20 % inhibition.

**Q.** And the IC50 [2]?
**A.** Its IC50 is < 500 nM.

**Q.** With NC(=O)Cc1ccc(CNc2ncnc(N(Cc3ccccc3Cl)C3CC3)c2F)cc1 [Example A66, 2-[4-[[[6-[(2-chlorophenyl)methyl-cyclopropyl-amino]-5-fluoro-pyrimidin-4-yl]amino]methyl]phenyl]acetamide] as the molecule, how does the inhibition at 1 µM [1, 3] read?
**A.** The inhibition at 1 µM was > 50%.

**Q.** And the “Gal4 activity range @ 0.1 μM (% inhibition)” value [1]?
**A.** Its value is >20 % inhibition.

**Q.** What about the IC50 [2] of the same molecule?
**A.** The IC50 was < 500 nM.

**Q.** Which inhibition at 1 µM [1, 3] does the source give for Cc1cccc(Cl)c1CN(c1ncnc(NCc2ccc(CC(N)=O)cc2)c1F)C1CC1 [Example A67, 2-[4-[[[6-[(2-chloro-6-methyl-phenyl)methyl-cyclopropyl-amino]-5-fluoro-pyrimidin-4-yl]amino]methyl]phenyl]acetamide] here?
**A.** The inhibition at 1 µM was > 50%.

**Q.** And the “Gal4 activity range @ 0.1 μM (% inhibition)” value [1]?
**A.** Its value is >20 % inhibition.

**Q.** And the IC50 [2]?
**A.** The IC50 was < 500 nM.

**Q.** How did the “Gal4 activity range @ 1 μM (% inhibition)” value ([1]; 1 μM test compound, HEK293t RORγ reporter cells, 24 hour, 1 µM) turn out when CCCn1nc(C)cc1CN(C)c1ncnc(NCc2ccc(CC(N)=O)cc2)c1F [Example A68, 2-[4-[[[5-fluoro-6-[methyl-[(5-methyl-2-propyl-pyrazol-3-yl)methyl]amino]pyrimidin-4-yl]amino]methyl]phenyl]acetamide] was run?
**A.** Its value is >50%.

**Q.** And the “Gal4 activity range @ 0.1 μM (% inhibition)” value [1]?
**A.** Its value is >0 % inhibition.

**Q.** What about the IC50 [2] of the same molecule?
**A.** The IC50 was < 500 nM.

**Q.** With CC(c1ccc(C(F)(F)F)cc1)N(c1ncnc(NCC2CCN(S(C)(=O)=O)CC2)c1F)C1CC1 (stereo not shown) [Example A73, N4-cyclopropyl-5-fluoro-N6-[(1-methylsulfonyl-4-piperidyl)methyl]-N4-[1-[4-(trifluoromethyl)phenyl]ethyl] pyrimidine-4,6-diamine] as the molecule, how does the inhibition at 1 µM [1, 3] read?
**A.** The inhibition at 1 µM was > 80%.

**Q.** What about the “Gal4 activity range @ 0.1 μM (% inhibition)” value [1] of the same molecule?
**A.** Its value is >80 % inhibition.

**Q.** And the IC50 [2]?
**A.** The IC50 was < 500 nM.

**Q.** With CC(c1ccc(C(F)(F)F)cc1)N(c1ncnc(NCc2ccc(NS(=O)(=O)C(F)(F)F)cc2)c1F)C1CC1 (stereo not shown) [Example A74, N-[4-[[[6-[cyclopropyl-[1-[4-(trifluoromethyl)phenyl]ethyl]amino]-5-fluoro-pyrimidin-4-yl]amino]methyl]phenyl]-1,1,1-trifluoro-methanesulfonamide] as the molecule, how does the inhibition at 1 µM [1, 3] read?
**A.** The inhibition at 1 µM was > 50%.

**Q.** What about the “Gal4 activity range @ 0.1 μM (% inhibition)” value [1] of the same molecule?
**A.** The value was >0 % inhibition.

**Q.** And the IC50 [2]?
**A.** The IC50 was < 500 nM.

**Q.** Which results are given for FCC1(CNc2ncnc(N(Cc3ccc(C(F)(F)F)cc3)C3CC3)c2F)CCOCC1 [Example A75, N4-cyclopropyl-5-fluoro-N6-[[4-(fluoromethyl)tetrahydropyran-4-yl]methyl]-N4-[[4-(trifluoromethyl)phenyl]methyl] pyrimidine-4,6-diamine]?
**A.** inhibition at 1 µM [1, 3]: > 80%; Gal4 activity range @ 0.1 μM (% inhibition) [1]: >80 % inhibition; IC50 [2]: < 500 nM

**Q.** Which inhibition at 1 µM [1, 3] does the source give for C[S+]([O-])c1ccc(CNc2ncnc(N(Cc3ccc(C(F)(F)F)cc3)C3CC3)c2F)cc1 (stereo not shown) [Example A76, N4-cyclopropyl-5-fluoro-N6-[(4-methylsulfinylphenyl)methyl]-N4-[[4-(trifluoromethyl)phenyl]methyl] pyrimidine-4,6-diamine] here?
**A.** The inhibition at 1 µM was > 80%.

**Q.** And the “Gal4 activity range @ 0.1 μM (% inhibition)” value [1]?
**A.** The value was >80 % inhibition.

**Q.** What about the IC50 [2] of the same molecule?
**A.** Its IC50 is < 500 nM.

**Q.** NC(=O)Cc1ccc(CNc2ncnc(N(Cc3c(Cl)cccc3Cl)C3CC3)c2F)cc1 [Example A77, 2-[4-[[[6-[cyclopropyl-[(2,6-dichlorophenyl)methyl]amino]-5-fluoro-pyrimidin-4-yl]amino]methyl]phenyl]acetamide] was tested. Which inhibition at 1 µM [1, 3] did it give?
**A.** The inhibition at 1 µM was > 50%.

**Q.** What about the “Gal4 activity range @ 0.1 μM (% inhibition)” value [1] of the same molecule?
**A.** Its value is >20 % inhibition.

**Q.** What about the IC50 [2] of the same molecule?
**A.** Its IC50 is < 500 nM.

**Q.** NC(=O)Cc1ccc(CNc2ncnc(N(Cc3ccc(C(F)(F)F)cc3)C3CC3)c2F)cn1 [Example A78, 2-[5-[[[6-[cyclopropyl-[[4-(trifluoromethyl)phenyl]methyl]amino]-5-fluoro-pyrimidin-4-yl]amino]methyl]-2-pyridyl]acetamide] was tested. Which inhibition at 1 µM [1, 3] did it give?
**A.** Its inhibition at 1 µM is > 80%.

**Q.** And the “Gal4 activity range @ 0.1 μM (% inhibition)” value [1]?
**A.** Its value is >50 % inhibition.

**Q.** And the IC50 [2]?
**A.** Its IC50 is < 500 nM.

**Q.** O=C(O)CC1(CNc2ncnc(N(Cc3ccc(C(F)(F)F)cc3)C3CC3)c2F)CCOCC1 [Example A79, 2-[4-[[[6-[cyclopropyl-[[4-(trifluoromethyl)phenyl]methyl]amino]-5-fluoro-pyrimidin-4-yl]amino]methyl]tetrahydropyran-4-yl]acetic acid] was tested. Which inhibition at 1 µM [1, 3] did it give?
**A.** The inhibition at 1 µM was > 20%.

**Q.** And the IC50 [2]?
**A.** Its IC50 is < 1000 nM.

**Q.** What does the source list for CNC(=O)CC1(CNc2ncnc(N(Cc3ccc(C(F)(F)F)cc3)C3CC3)c2F)CCOCC1 [Example A80, 2-[4-[[[6-[cyclopropyl-[[4-(trifluoromethyl)phenyl]methyl]amino]-5-fluoro-pyrimidin-4-yl]amino]methyl]tetrahydropyran-4-yl]-N-methyl-acetamide]?
**A.** inhibition at 1 µM [1, 3]: > 80%; Gal4 activity range @ 0.1 μM (% inhibition) [1]: >20 % inhibition; IC50 [2]: < 500 nM

**Q.** Which results are given for CN(c1ncnc(NCc2ccc(CC(N)=O)cc2)c1F)C1(c2ccc(C(F)(F)F)cc2)CC1 [Example A81, 2-[4-[[[5-fluoro-6-[methyl-[1-[4-(trifluoromethyl)phenyl]cyclopropyl]amino]pyrimidin-4-yl]amino]methyl]phenyl]acetamide]?
**A.** inhibition at 1 µM [1, 3]: > 80%; Gal4 activity range @ 0.1 μM (% inhibition) [1]: >50 % inhibition; IC50 [2]: < 500 nM

**Q.** CC1(c2ccc(CNc3ncnc(N(Cc4ccc(C(F)(F)F)cc4)C4CC4)c3F)cc2)NC(=O)NC1=O (stereo not shown) [Example A82, 5-[4-[[[6-[cyclopropyl-[[4-(trifluoromethyl)phenyl]methyl]amino]-5-fluoro-pyrimidin-4-yl]amino]methyl]phenyl]-5-methyl-imidazolidine-2,4-dione] was tested. Which inhibition at 1 µM [1, 3] did it give?
**A.** Its inhibition at 1 µM is > 80%.

**Q.** And the “Gal4 activity range @ 0.1 μM (% inhibition)” value [1]?
**A.** Its value is >20 % inhibition.

**Q.** And the IC50 [2]?
**A.** The IC50 was < 1000 nM.

**Q.** With NC(=O)Cc1ccc(CNc2ncnc(N(Cc3ccc(C(F)(F)F)nc3)C3CC3)c2F)cc1 [Example A83, 2-[4-[[[6-[cyclopropyl-[[6-(trifluoromethyl)-3-pyridyl]methyl]amino]-5-fluoro-pyrimidin-4-yl]amino]methyl]phenyl]acetamide] as the molecule, how does the inhibition at 1 µM [1, 3] read?
**A.** The inhibition at 1 µM was > 80%.

**Q.** And the “Gal4 activity range @ 0.1 μM (% inhibition)” value [1]?
**A.** The value was >50 % inhibition.

**Q.** And the IC50 [2]?
**A.** Its IC50 is < 500 nM.

**Q.** For NC(=O)Cc1ccc(CNc2ncnc(N(Cc3ccc(C(F)(F)F)cn3)C3CC3)c2F)cc1 [Example A85, 2-[4-[[[6-[cyclopropyl-[[5-(trifluoromethyl)-2-pyridyl]methyl]amino]-5-fluoro-pyrimidin-4-yl]amino]methyl]phenyl]acetamide], which inhibition at 1 µM [1, 3] is on record?
**A.** Its inhibition at 1 µM is > 80%.

**Q.** What about the “Gal4 activity range @ 0.1 μM (% inhibition)” value [1] of the same molecule?
**A.** The value was >50 % inhibition.

**Q.** And the IC50 [2]?
**A.** The IC50 was < 500 nM.

**Q.** What does the source list for Fc1c(NCc2ccc(Cc3nnn[nH]3)cc2)ncnc1N(Cc1ccc(-n2cccn2)cc1)C1CC1 [Example A88, N4-cyclopropyl-5-fluoro-N4-[(4-pyrazol-1-ylphenyl)methyl]-N6-[[4-(1H-tetrazol-5-ylmethyl)phenyl]methyl]pyrimidine-4,6-diamine]?
**A.** inhibition at 1 µM [1, 3]: > 50%; Gal4 activity range @ 0.1 μM (% inhibition) [1]: >0 % inhibition; IC50 [2]: < 500 nM

**Q.** Which results are given for CS(=O)(=O)c1ccc(CNc2ncnc(N(Cc3ccc(C(F)(F)F)cc3)C3CC3)c2F)cn1 [Example A89, N6-cyclopropyl-5-fluoro-N4-[(6-methylsulfonyl-3-pyridyl)methyl]-N6-[[4-(trifluoromethyl)phenyl]methyl] pyrimidine-4,6-diamine]?
**A.** inhibition at 1 µM [1, 3]: > 80%; Gal4 activity range @ 0.1 μM (% inhibition) [1]: >80 % inhibition; IC50 [2]: < 500 nM

**Q.** Which inhibition at 1 µM [1, 3] does the source give for CC(C)n1nc(C2CC2)cc1CN(c1ncnc(NCc2ccc(CC(N)=O)cc2)c1F)C1CC1 [Example A90, 2-[4-[[[6-[cyclopropyl-[(5-cyclopropyl-2-isopropyl-pyrazol-3-yl)methyl]amino]-5-fluoro-pyrimidin-4-yl]amino]methyl]phenyl]acetamide] here?
**A.** Its inhibition at 1 µM is > 0%.

**Q.** And the IC50 [2]?
**A.** The IC50 was < 500 nM.

**Q.** How did the inhibition at 1 µM [1, 3] turn out when O=S(=O)(Nc1ccc(CNc2ncnc(N(Cc3ccc(C(F)(F)F)cc3)C3CC3)c2F)cc1)C(F)F [Example A91, N-[4-[[[6-[cyclopropyl-[[4-(trifluoromethyl)phenyl]methyl]amino]-5-fluoro-pyrimidin-4-yl]amino]methyl]phenyl]-1,1-difluoro-methanesulfonamide] was run?
**A.** The inhibition at 1 µM was > 80%.

**Q.** What about the “Gal4 activity range @ 0.1 μM (% inhibition)” value [1] of the same molecule?
**A.** Its value is >80 % inhibition.

**Q.** What about the IC50 [2] of the same molecule?
**A.** Its IC50 is < 500 nM.

**Q.** For NC(=O)CC1CC(CNc2ncnc(N(Cc3ccc(C(F)(F)F)cc3)C3CC3)c2F)C1 (stereo not shown) [Example A95, 2-[3-[[[6-[cyclopropyl-[[4-(trifluoromethyl)phenyl]methyl]amino]-5-fluoro-pyrimidin-4-yl]amino]methyl]cyclobutyl] acetamide], which inhibition at 1 µM [1, 3] is on record?
**A.** The inhibition at 1 µM was > 80%.

**Q.** And the “Gal4 activity range @ 0.1 μM (% inhibition)” value [1]?
**A.** Its value is >20 % inhibition.

**Q.** And the IC50 [2]?
**A.** The IC50 was < 1000 nM.
